Calls of active or inactive are those of the source.
Experiments:
Cytochrome P450 3A4 = Cytochrome P450 3A4 (Homo sapiens, UniProt P08684);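 also: CYP3A4 tested as one member of a cytochrome P450 panel screen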
Cytochrome P450 2C9 = Cytochrome P450 2C9 (Homo sapiens, UniProt P11712)
CHO-K1 = test: (§1) Counterscreen for antagonists of the orexin 1 receptor (OX1R; HCRTR1): Homogeneous time resolved fluorescence (HTRF)-based cell-based dose response assay to identify antagonists of the parental CHO-K1 cell line. [Related pubchem assays (depositor defined):AID434989, AID435008, AID463079, AID485270, AID492963, AID492964, AID492965, AID493232, AID504699, AID504701]; format: functional; conditions: Cricetulus griseus
Orexin receptor type 2 [1] = target: T1, Orexin receptor type 2 (Homo sapiens, UniProt O43614); test: Counterscreen assay for antagonists of the orexin 1 receptor (OX1R; HCRTR1): Fluorescence-based cell-based dose response assay for antagonists of the orexin 2 receptor (OX2R; HCRTR2), run by assay provider.; format: functional
T1 sequence (O43614 whole entry): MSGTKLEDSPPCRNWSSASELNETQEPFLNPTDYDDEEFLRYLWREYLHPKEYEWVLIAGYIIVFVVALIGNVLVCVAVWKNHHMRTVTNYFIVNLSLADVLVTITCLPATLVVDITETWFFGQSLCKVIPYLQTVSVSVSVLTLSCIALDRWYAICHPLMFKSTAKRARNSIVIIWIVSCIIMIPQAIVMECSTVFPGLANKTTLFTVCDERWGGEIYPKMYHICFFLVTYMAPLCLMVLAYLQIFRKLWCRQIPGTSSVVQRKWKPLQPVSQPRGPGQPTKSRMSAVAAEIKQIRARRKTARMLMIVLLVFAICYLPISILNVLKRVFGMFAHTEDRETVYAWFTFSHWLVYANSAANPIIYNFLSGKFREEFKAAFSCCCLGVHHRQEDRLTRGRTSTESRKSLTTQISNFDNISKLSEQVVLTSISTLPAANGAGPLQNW

[2] = target: T2, Orexin/Hypocretin receptor type 1 (Homo sapiens, UniProt O43613); test: (§2) Fluorescence-based cell-based high throughput dose response assay for antagonists of the orexin 1 receptor (OX1R; HCRTR1). [Related pubchem assays (depositor defined):AID434989, AID435008, AID463079, AID485270, AID492963, AID492964, AID492965, AID493232, AID504717, AID504718]; format: functional
T2 sequence (O43613 whole entry): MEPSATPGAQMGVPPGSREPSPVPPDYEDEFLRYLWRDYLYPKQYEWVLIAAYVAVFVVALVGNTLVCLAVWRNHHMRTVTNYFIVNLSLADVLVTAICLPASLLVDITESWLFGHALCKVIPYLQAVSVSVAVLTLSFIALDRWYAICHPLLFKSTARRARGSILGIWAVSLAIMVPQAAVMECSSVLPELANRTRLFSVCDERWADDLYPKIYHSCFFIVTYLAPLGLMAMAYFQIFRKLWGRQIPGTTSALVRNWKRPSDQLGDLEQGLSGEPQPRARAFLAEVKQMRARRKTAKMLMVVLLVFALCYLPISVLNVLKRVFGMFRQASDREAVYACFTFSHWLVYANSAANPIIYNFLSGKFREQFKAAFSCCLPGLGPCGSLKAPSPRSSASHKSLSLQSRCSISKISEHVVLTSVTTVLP

[3] = target: T2, Orexin/Hypocretin receptor type 1; test: as §2, with “Homogeneous Time Resolved Fluorescence (HTRF)-based” for “Fluorescence-based”; format: functional
Orexin receptor type 2 [4] = target: T1, Orexin receptor type 2; test: Counterscreen assay for antagonists of the orexin 1 receptor (OX1R; HCRTR1): Homogeneous Time Resolved Fluorescence (HTRF)-based cell-based dose response assay for antagonists of the orexin 2 receptor (OX2R; HCRTR2), run by assay provider.; format: functional
[5] = as §1, with “Fluorescence-based” for “Homogeneous time resolved fluorescence (HTRF)-based”, “cell-based high throughput” for “cell-based”, “CHO” for “CHO-K1”; format: functional
Vero [6] = test: cells; format: functional; conditions: Chlorocebus sabaeus
[7] = NIH3T3 cell viability loss – ATP luminescence, mouse fibroblasts, counter-screen, dose response (AID 2010); format: functional, cell-based;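 also: cells exposed to compound for about 90 hours before reading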
[8] = Trypanosoma cruzi growth suppression in host cells – NIH3T3 host cells, beta-gal luminescence, confirmation (AID 2044); format: functional, cell-based;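 also: intracellular parasites grown in NIH/3T3 mouse fibroblasts as host cells; luminescent beta-galactosidase reporter signal from transgenic T. cruzi replicating inside host cells; inhibitors lower the luminescence signal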
Vero [9] = test: cells; format: functional, cell-based; conditions: Chlorocebus sabaeus
[10] = target: T3, Microphthalmia-associated transcription factor (Homo sapiens, UniProt O75030); test: reducers of TRPM1 reporter luminescence, concentration series – cell-based, SK-MEL-5, cherry-picked, set 3, MITF inhibitor project, dose response (AID 493073); format: functional;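 also: SK-MEL-5 melanoma cells with luciferase driven by the MITF target TRPM1 promoter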
T3 sequence (O75030 whole entry): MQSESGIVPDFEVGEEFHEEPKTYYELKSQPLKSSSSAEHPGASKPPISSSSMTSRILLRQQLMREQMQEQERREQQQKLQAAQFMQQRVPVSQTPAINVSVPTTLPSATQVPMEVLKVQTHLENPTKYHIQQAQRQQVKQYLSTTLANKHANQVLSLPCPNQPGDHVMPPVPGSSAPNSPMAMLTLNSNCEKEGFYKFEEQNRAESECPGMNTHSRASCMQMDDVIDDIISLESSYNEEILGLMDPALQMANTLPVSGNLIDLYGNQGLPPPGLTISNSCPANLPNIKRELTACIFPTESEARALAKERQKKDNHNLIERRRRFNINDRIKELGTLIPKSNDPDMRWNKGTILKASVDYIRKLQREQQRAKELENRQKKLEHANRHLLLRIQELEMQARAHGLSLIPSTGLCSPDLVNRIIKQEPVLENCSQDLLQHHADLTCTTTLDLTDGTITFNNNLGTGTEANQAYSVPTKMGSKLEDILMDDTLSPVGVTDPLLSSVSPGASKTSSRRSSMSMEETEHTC

cells [11] = format: functional
[12] = Vero E6 cell cytotoxicity, dose response, cytotoxicity control for non-replicating M. tuberculosis project, secondary assay (AID 492998); format: functional, VeroE6; conditions: Vero C1008
[13] = THP-1 cell cytotoxicity, dose response, cytotoxicity control for non-replicating M. tuberculosis project (AID 489025); format: functional
[14] = activation of miR-122 Renilla sensor silencing – cell-based, Huh7 psiCHECK-miR122, Renilla luciferase, cherry-picked, dose response (AID 651956); format: functional;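 also: huh7 hepatoma cells stably carrying a psiCHECK-2 miR-122 sensor plasmid; renilla luciferase signal reporting endogenous miR-122 activity after 48 h compound exposure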
[15] = target: DNA dC->dU-editing enzyme APOBEC-3A (Homo sapiens, UniProt P31941); test: Dose Response confirmation of small molecule APOBEC3A DNA Deaminase Inhibitors via a fluorescence-based single-stranded DNA deaminase assay. [Related pubchem assays (depositor defined):AID493011, AID493024]; format: functional
[16] = target: DNA dC->dU-editing enzyme APOBEC-3G (Homo sapiens, UniProt Q9HC16); format: functional;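 also: Dose-response counterscreen measuring inhibition of APOBEC3G DNA deaminase activity, run while confirming APOBEC3A inhibitors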
cells [17] = test: cells
[18] = viability of uninfected HEp-2 cells – cell-based, HTS, cytotoxicity control for RSV inhibitor project, dose response (AID 2410); format: functional; conditions: human respiratory syncytial virus
cells [19] = format: functional, cell-based
HEK293 [20] = test: cells; format: functional, cell-based; conditions: Homo sapiens
HEK293 [21] = test: NOD2 signaling inhibitors in MDP-stimulated cells, cell-based, uHTS, luminescence (AID 2001); format: functional; conditions: Homo sapiens
[22] = target: Nucleotide-binding oligomerization domain-containing protein 2 (Homo sapiens, UniProt Q9HC29); test: inhibition of NOD2-driven NF-kB reporter – cell-based, luminescence, uHTS, HEK293 (AID 1566); format: functional
HEK293 [23] = test: cells; format: functional, cell-based; conditions: Homo sapiens; remark: listed apart in the source
HEK293 [24] = test: inhibition of NOD1-driven NF-kB reporter – cell-based, luminescence, uHTS, primary screen (AID 1578); format: functional; conditions: Homo sapiens
HEK293 [25] = test: cells; format: functional, cell-based; conditions: Homo sapiens; remark: listed apart in the source
[26] = target: FAD-linked sulfhydryl oxidase ALR (Homo sapiens, UniProt P55789); test: ALR-catalysed DTT oxidation blockers – biochemical, H2O2 detection, luminescence, cherry-pick, dose response (AID 493248)
Cytochrome P450 2C19 = Cytochrome P450 2C19 (Homo sapiens, UniProt P33261); test: Cytochrome panel assay with activity outcomes. Panel member name: p450-cyp2c19 Compounds with AC50 equal or less than 10 uM are considered active; format: functional; conditions: read-out: AC50
Cytochrome P450 2D6 = Cytochrome P450 2D6 (Homo sapiens, UniProt P10635);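 also: CYP2D6 member of a cytochrome P450 panel assay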
[27] = target: Peroxisome proliferator-activated receptor gamma/Nuclear receptor coactivator 2 (Homo sapiens, UniProt P37231); test: (§3) TR-FRET dose response biochemical High Throughput Screening assay for agonists of the steroid receptor coactivator 2 (SRC-2) recruitment by the peroxisome proliferator-activated receptor gamma (PPAR gamma): non-selective agonists. [Related pubchem assays: 1297, 1032 ]; format: functional
[28] = target: Peroxisome proliferator-activated receptor gamma/Nuclear receptor coactivator 3 (Homo sapiens, UniProt P37231); test: as §3, with “3 (SRC-3)” for “2 (SRC-2)”, “1301 (Confirmation screen.), 1048 (Primary screen.)]” for “1297, 1032 ]”; format: functional
[29] = target: Peroxisome proliferator-activated receptor gamma/Nuclear receptor coactivator 1 (Homo sapiens, UniProt P37231); test: as §3, with “1 (SRC-1)” for “2 (SRC-2)”, “assays (depositor defined):AID1300, AID1808, AID504735, AID631]” for “assays: 1297, 1032 ]”; format: protein assay

DNA dC->dU-editing enzyme APOBEC-3A, sequence (P31941 whole entry): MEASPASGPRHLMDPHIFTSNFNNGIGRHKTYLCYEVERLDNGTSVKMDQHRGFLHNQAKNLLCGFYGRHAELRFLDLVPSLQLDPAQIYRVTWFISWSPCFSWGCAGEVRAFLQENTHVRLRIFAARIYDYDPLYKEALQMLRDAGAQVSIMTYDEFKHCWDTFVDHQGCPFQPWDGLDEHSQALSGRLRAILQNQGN
DNA dC->dU-editing enzyme APOBEC-3G, sequence (Q9HC16 whole entry): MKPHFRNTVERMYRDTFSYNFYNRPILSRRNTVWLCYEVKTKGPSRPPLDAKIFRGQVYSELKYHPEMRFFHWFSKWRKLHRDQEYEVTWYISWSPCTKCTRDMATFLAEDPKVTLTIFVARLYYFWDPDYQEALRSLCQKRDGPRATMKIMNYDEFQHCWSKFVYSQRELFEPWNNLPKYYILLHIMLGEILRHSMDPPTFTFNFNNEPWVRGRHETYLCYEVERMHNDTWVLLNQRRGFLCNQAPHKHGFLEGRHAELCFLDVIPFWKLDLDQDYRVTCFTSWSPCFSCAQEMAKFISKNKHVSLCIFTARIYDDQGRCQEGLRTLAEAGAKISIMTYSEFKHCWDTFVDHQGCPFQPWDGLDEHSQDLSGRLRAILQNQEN
Cytochrome P450 2C9, sequence (P11712 whole entry): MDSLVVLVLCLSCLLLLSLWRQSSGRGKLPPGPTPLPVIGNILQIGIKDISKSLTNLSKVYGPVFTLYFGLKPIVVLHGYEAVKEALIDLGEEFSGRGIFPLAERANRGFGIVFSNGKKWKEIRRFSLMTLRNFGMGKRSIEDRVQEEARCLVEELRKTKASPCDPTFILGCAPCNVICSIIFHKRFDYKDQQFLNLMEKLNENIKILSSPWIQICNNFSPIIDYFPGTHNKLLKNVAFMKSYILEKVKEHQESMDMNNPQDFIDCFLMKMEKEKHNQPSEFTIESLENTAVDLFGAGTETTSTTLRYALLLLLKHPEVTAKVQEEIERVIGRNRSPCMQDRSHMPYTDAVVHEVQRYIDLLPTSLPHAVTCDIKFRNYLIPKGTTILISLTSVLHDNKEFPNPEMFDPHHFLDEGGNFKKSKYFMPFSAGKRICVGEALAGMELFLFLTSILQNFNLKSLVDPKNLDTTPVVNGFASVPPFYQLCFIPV
Cytochrome P450 3A4, sequence (P08684 whole entry): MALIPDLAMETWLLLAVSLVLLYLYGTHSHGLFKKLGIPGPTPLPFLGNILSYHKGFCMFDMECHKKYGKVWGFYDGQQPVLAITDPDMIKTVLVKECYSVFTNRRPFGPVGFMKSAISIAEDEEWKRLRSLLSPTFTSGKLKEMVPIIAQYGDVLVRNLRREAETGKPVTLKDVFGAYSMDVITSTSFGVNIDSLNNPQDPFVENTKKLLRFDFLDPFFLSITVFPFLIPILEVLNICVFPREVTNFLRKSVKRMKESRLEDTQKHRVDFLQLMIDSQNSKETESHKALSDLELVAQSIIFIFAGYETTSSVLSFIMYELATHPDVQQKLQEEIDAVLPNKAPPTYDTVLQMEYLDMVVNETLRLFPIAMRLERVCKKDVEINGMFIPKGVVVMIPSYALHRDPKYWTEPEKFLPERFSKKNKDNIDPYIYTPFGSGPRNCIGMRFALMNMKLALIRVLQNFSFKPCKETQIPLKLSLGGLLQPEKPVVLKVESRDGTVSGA
Cytochrome P450 2C19, sequence (P33261 whole entry): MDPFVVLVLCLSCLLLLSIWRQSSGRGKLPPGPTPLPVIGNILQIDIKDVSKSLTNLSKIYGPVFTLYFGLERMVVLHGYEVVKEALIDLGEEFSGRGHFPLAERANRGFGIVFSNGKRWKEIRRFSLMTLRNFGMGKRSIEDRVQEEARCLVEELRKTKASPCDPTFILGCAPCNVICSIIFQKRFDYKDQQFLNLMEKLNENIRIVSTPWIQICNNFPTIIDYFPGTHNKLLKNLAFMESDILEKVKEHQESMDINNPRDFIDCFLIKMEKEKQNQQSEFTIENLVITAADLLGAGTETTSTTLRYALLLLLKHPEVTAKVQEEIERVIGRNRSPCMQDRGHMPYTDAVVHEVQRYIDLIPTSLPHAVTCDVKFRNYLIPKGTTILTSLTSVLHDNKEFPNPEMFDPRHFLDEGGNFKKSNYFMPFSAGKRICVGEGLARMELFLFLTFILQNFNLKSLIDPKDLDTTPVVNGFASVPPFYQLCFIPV
Peroxisome proliferator-activated receptor gamma/Nuclear receptor coactivator 2, sequence (P37231 whole entry): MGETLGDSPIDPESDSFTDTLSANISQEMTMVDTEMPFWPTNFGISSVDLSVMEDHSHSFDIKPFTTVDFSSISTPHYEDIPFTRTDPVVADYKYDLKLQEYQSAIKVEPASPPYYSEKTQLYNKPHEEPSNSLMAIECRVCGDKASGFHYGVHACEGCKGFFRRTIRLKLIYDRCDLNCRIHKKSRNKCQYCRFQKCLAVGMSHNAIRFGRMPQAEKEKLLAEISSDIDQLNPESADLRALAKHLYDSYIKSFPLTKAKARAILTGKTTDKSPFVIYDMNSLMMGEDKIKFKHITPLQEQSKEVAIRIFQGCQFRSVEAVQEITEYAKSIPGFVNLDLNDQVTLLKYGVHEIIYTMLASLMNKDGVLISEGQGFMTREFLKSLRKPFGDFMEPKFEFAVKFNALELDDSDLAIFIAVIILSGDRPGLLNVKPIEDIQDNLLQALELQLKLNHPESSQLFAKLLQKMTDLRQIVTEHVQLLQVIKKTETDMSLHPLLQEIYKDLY
Peroxisome proliferator-activated receptor gamma/Nuclear receptor coactivator 2, sequence (Q15596 whole entry, further chain): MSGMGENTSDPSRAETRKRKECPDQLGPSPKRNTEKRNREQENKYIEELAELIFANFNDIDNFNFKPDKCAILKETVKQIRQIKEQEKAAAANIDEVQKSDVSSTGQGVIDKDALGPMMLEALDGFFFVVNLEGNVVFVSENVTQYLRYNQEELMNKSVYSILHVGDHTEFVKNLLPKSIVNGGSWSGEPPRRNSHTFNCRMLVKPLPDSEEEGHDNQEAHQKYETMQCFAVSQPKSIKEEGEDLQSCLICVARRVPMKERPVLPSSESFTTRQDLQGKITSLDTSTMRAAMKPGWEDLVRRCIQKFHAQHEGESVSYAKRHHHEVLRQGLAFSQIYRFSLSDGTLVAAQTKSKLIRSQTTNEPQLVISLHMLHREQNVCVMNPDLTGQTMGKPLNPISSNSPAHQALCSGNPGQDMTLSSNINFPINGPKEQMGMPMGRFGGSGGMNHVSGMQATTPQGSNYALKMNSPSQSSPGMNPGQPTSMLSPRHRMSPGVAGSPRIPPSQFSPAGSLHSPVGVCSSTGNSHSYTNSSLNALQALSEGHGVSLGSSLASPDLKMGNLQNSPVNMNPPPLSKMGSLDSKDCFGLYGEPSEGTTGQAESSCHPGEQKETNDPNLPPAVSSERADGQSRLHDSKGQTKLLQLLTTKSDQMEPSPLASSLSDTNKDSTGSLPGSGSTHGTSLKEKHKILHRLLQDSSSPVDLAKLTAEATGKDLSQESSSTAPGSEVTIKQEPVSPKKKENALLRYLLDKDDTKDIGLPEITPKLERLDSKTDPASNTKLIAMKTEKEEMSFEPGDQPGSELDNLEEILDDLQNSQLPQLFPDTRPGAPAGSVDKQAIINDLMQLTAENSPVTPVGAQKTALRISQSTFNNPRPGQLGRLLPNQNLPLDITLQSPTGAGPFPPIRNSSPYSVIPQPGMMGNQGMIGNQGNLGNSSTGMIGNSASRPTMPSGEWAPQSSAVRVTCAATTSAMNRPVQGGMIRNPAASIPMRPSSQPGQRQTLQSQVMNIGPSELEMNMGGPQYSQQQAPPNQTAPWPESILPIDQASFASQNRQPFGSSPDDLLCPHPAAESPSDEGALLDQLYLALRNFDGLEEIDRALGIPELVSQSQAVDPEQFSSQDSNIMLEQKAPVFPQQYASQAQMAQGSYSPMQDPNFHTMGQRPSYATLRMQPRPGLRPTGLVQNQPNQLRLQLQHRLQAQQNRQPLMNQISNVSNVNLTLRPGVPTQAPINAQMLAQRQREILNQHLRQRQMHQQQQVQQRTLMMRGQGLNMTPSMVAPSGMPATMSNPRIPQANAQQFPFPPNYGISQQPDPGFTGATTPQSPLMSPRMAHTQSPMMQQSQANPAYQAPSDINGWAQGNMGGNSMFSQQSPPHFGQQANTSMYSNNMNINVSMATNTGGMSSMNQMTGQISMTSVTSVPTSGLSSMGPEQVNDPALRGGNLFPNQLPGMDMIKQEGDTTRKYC
FAD-linked sulfhydryl oxidase ALR, sequence (P55789 whole entry): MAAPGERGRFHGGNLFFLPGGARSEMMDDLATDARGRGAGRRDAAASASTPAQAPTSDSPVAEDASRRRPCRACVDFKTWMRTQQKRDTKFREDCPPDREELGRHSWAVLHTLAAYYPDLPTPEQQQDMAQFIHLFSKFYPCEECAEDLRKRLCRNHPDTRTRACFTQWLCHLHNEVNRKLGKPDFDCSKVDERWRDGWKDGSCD
Cytochrome P450 2D6, sequence (P10635 whole entry): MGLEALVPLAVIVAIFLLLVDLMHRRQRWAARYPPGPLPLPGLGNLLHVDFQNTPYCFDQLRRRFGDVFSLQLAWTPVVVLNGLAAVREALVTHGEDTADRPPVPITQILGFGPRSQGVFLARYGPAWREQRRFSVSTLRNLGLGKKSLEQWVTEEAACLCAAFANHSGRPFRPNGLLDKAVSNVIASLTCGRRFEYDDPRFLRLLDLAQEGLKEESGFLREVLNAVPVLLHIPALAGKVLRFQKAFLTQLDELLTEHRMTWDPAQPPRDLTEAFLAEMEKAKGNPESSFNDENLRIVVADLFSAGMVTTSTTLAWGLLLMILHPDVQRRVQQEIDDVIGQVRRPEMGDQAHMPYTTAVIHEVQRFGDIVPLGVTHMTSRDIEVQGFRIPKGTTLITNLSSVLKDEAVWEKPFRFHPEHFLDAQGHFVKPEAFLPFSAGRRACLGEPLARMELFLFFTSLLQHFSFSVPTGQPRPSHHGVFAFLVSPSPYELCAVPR

Structure (SMILES): CN1CCN(c2ncncc2-c2ccc(N(C)C)cc2)CC1
- AC50 (Cytochrome P450 3A4): 2 µM (inconclusive)
- AC50 (Cytochrome P450 2C9): inconclusive

Structure (SMILES): Cc1ccccc1N(CC(=O)NC1CCCC1)C(=O)c1oc(C(C)(C)C)cc1C
- IC50 (CHO-K1): > 66.2 µM (inactive)
- IC50 (Orexin receptor type 2 [1]): > 88.8 µM (inactive)
- IC50 [2]: 3.52 µM (active)
- IC50 [3]: 0.264 µM (active)
- IC50 (Orexin receptor type 2 [4]): > 50 µM (inactive)
- IC50 [5]: > 49.8 µM (inactive)

Structure (SMILES): COc1ccccc1Nc1ncnc2c1c(C)c(C)n2CCCN(C)C
- CC50 (Vero [6]): > 25 µM (active)
- EC50 [7]: 4.51 µM (active)
- EC50 [8]: 0.156 µM (active)
- IC50 (Vero [9]): 23.2 µM (active)

Structure (SMILES): Cc1ccc(-n2nnnc2CNC(=O)c2ccc([N+](=O)[O-])o2)cc1C
- AC50 [10]: 9.72 µM (active)
- EC50 [7]: > 30 µM (not active)
- EC50 [8]: 0.145 µM (active)
- IC50 (cells [11]): 8.5 µM (active)
- CC50 [12]: 12.1 µM (active)
- CC50 [13]: 22.5 µM (active)

Structure (SMILES): CNc1nc(-c2ccc(N(C)C)cc2)nc2ccccc12
- AC50 (Cytochrome P450 2C9): inconclusive

Structure (SMILES): CN1C(=O)c2cc(NC(=O)c3cccc(F)c3)ccc2OC[C@H]2O[C@H](CC(=O)O)CC[C@H]21
- AC50 [14]: 0.366 µM (active)

Structure (SMILES): C[N+](C)(C)c1ccccc1
- IC50 [15]: 2.16 µM (active)
- IC50 [16]: 3.33 µM (active)

Structure (SMILES): CCOc1ccccc1-n1nnnc1SCC(=O)Nc1cc(C)on1
- AC50 (Cytochrome P450 3A4): 3.98 µM (inconclusive)
- AC50 (Cytochrome P450 2C9): inconclusive

Structure (SMILES): Cc1ccc2c(c1)cc(C(=O)NCc1ccccc1)n2C
- IC50 (cells [17]): 24 µM (active)
- CC50 [18]: 44.9 µM (active)
- EC50 (cells [19]): > 350 µM (not active)
- IC50 (Vero [9]): 17.8 µM (active)

Structure (SMILES): Cc1c(Nc2c3ccccc3nc3ccccc23)c(=O)n(-c2ccccc2)n1C
- IC50 (HEK293 [20]): > 20 µM (inactive)
- IC50 (HEK293 [21]): > 20 µM (inactive)
- EC50 [22]: > 20 µM (inactive)
- IC50 (HEK293 [23]): > 20 µM (inactive)
- EC50 (HEK293 [24]): > 20 µM (inactive)
- IC50 (HEK293 [25]): > 20 µM (inactive)

Structure (SMILES): CN1CCN(S(=O)(=O)c2ccc(C3CCCCC3)cc2)CC1
- IC50 [15]: 9.2 µM (active)
- IC50 [16]: 16.8 µM (active)

Structure (SMILES): C[N+]1(CCOC(=O)C2(c3ccccc3)CCCC2)CCCCC1
- IC50 [15]: 3.89 µM (active)
- IC50 [16]: 3.57 µM (active)

Structure (SMILES): OCc1ccc(-c2nn(Cc3ccccc3)c3ccccc23)o1
- AC50 [26]: 10 µM (active)
- AC50 (Cytochrome P450 2C19): 10 µM (inconclusive)
- AC50 (Cytochrome P450 2D6): 39.8 µM (inconclusive)
- AC50 [14]: 0.547 µM (active)

Structure (SMILES): CCCN(CCC)CCNC(=O)C1CCN(Cc2nc(-c3ccc(Cl)cc3)oc2C)CC1
- CC50 (Vero [6]): > 25 µM (active)
- IC50 (Vero [9]): 10.8 µM (active)

Structure (SMILES): CC[C@]12c3[nH]c4cc(-c5ccco5)ccc4c3CCN1C(=O)[C@@H](CC(=O)NC/C=C(\C)CCC=C(C)C)C[C@@H]2C(=O)N1CCN(C(=O)c2ccco2)CC1
- IC50 (CHO-K1): > 66.2 µM (inactive)
- IC50 (Orexin receptor type 2 [1]): 39.5 µM (inactive)
- IC50 [2]: 3.23 µM (active)
- IC50 [3]: 1.07 µM (active)
- IC50 (Orexin receptor type 2 [4]): 2.05 µM (active)
- IC50 [5]: > 49.8 µM (inactive)

Structure (SMILES): COc1cc(NC(=O)C2CCN(S(=O)(=O)c3cccc4nonc34)CC2)cc(OC)c1
- AC50 (Cytochrome P450 2C19): 15.8 µM (inconclusive)
- AC50 (Cytochrome P450 2C9): inconclusive

Structure (SMILES): Cc1cc(SCC(=O)c2ccc3c(c2)OCO3)nc2ccccc12
- EC50 [27]: 10.4 µM (not active)
- IC50 (CHO-K1): > 66.2 µM (inactive)
- EC50 [28]: > 79.4 µM (not active)
- IC50 (Orexin receptor type 2 [1]): 14.1 µM (inactive)
- IC50 [2]: 18.8 µM (inactive)
- IC50 [3]: 3.34 µM (active)
- IC50 (Orexin receptor type 2 [4]): 11.2 µM (inactive)
- IC50 [5]: > 49.7 µM (inactive)
- EC50 [29]: 10.2 µM (inactive)

— ChEMBL document CHEMBL1201862, “PubChem BioAssay data set” (2004)
